In US10093631B2, “Bifunctional compounds and use for reducing uric acid levels” (Acquist LLC, priority 2014, dated 2018):
Like-named read-outs stand apart in the source and are kept apart here.

Experiments:
URAT1 (SLC22A12) = URAT1 (SLC22A12) (Homo sapiens (Human), UniProt Q96S37); assay: URAT1 (SLC22A12) cellular uptake assay, 3H-orotate transport in stably transfected URAT-1/CHO cells; format: cell-based
xanthine oxidase = xanthine oxidase (Homo sapiens (Human), UniProt P47989); assay: Fluorescence-based xanthine oxidase inhibition assay; format: biochemical
Chain of xanthine oxidase (P47989 whole entry, species assumed): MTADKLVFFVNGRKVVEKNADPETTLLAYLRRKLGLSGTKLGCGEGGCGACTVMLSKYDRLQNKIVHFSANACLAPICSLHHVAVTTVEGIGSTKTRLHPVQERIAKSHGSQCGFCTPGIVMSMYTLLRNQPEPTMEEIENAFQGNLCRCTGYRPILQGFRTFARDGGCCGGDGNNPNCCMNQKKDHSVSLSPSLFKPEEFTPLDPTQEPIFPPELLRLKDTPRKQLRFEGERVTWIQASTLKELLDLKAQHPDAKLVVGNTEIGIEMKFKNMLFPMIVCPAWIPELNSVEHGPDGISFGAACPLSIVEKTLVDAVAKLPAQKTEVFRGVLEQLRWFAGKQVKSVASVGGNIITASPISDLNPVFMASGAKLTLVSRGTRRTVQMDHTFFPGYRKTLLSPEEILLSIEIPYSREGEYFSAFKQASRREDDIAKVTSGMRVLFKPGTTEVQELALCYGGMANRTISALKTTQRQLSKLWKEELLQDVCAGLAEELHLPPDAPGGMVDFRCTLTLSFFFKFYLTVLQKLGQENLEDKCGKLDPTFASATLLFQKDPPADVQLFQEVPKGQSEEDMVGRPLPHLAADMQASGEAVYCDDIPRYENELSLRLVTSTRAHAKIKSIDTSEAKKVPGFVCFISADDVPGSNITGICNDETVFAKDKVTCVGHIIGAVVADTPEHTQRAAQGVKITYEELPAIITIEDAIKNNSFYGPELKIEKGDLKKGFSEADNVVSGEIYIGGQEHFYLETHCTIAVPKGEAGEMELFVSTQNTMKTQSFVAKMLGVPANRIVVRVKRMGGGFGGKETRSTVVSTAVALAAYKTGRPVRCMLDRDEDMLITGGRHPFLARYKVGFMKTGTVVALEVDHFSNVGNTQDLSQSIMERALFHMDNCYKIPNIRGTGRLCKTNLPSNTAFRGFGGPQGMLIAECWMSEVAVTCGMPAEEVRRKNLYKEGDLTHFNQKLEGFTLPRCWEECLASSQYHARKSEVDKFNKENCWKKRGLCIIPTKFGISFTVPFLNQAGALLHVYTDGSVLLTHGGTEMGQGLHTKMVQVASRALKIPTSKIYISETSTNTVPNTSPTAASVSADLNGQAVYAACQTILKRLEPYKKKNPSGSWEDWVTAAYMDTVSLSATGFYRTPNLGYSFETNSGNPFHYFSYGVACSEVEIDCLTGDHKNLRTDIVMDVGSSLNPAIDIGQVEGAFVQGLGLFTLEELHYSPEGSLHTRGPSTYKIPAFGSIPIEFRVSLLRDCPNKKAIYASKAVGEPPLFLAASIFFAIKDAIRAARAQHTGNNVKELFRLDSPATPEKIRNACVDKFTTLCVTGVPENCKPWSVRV

[1] = URAT-1/CHO cells, 3H-orotate uptake, 7 concentrations 0.01 to 150 μM, read-out: URAT1 IC50
[2] = triplicate, 10 concentrations, read-out: Xanthine Oxidase IC50

Chain of URAT1 (SLC22A12) (Q96S37 whole entry): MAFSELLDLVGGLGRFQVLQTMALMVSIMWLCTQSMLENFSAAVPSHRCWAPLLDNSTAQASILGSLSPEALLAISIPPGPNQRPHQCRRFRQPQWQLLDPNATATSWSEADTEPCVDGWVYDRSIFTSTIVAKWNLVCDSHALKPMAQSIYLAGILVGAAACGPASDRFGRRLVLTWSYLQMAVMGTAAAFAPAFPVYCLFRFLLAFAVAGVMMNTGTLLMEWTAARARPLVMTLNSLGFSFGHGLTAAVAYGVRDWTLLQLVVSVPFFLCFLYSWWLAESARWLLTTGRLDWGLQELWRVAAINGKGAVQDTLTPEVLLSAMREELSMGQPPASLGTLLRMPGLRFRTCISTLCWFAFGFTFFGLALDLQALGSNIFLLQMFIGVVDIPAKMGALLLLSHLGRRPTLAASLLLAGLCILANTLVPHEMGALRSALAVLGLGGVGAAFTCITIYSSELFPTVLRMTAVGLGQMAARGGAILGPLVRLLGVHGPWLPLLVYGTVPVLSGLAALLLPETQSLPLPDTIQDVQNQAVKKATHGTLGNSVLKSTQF

**Q.** Which IC50 (URAT1 (SLC22A12)) does the source give for O=C(Nc1ccc(F)cc1)c1c(O)[nH]c(=S)[nH]c1=O [Formula (Ib), N-(4′-fluorophenyl)-1,2,3,4-tetrahydro-6-hydroxy-4-oxo-2-thioxo-5-pyrimidinecarboxamide] here?
**A.** < 10 µM

**Q.** What about the IC50 (xanthine oxidase) of the same compound?
**A.** < 10 µM

**Q.** For O=C(Nc1ccc(O)cc1F)c1c(O)[nH]c(=S)[nH]c1=O [Formula (Ic), N-(2′-fluoro-4′-hydroxyphenyl)-1,2,3,4-tetrahydro-6-hydroxy-4-oxo-2-thioxo-5-pyrimidinecarboxamide], which IC50 (URAT1 (SLC22A12)) is on record?
**A.** < 10 µM

**Q.** What about the IC50 (URAT1 (SLC22A12); [1]) of the same compound?
**A.** 5.83 µM

**Q.** And the IC50 (xanthine oxidase)?
**A.** < 10 µM

**Q.** And the IC50 (xanthine oxidase; [2])?
**A.** 5.6 µM

**Q.** How did the IC50 (URAT1 (SLC22A12)) turn out when O=C(Nc1cc(F)c(O)c(F)c1)c1c(O)[nH]c(=O)[nH]c1=O [Formula (Ig), N-(3,5-difluoro-4-hydroxyphenyl)-6-hydroxy-2,4-dioxo-1,2,3,4-tetrahydropyrimidine-5-carboxamide] was run?
**A.** < 10 µM

**Q.** And the IC50 (URAT1 (SLC22A12); [1])?
**A.** 3.55 µM

**Q.** And the IC50 (xanthine oxidase)?
**A.** < 10 µM

**Q.** And the IC50 (xanthine oxidase; [2])?
**A.** 1.92 µM

**Q.** For O=C(Nc1ccc(O)cc1F)c1c(O)[nH]c(=O)[nH]c1=O [Formula (Ih), N-(2-fluoro-4-hydroxyphenyl)-6-hydroxy-2,4-dioxo-1,2,3,4-tetrahydropyrimidine-5-carboxamide], which IC50 (URAT1 (SLC22A12); [1]) is on record?
**A.** 1.79 µM

**Q.** And the IC50 (xanthine oxidase; [2])?
**A.** 5.97 µM

**Q.** Which results are given for O=C(Nc1ccncc1)c1c(O)[nH]c(=O)[nH]c1=O [Formula (Ik), 6-hydroxy-2,4-dioxo-N-(pyridin-4-yl)-1,2,3,4-tetrahydropyrimidine-5-carboxamide]?
**A.** IC50 (URAT1 (SLC22A12); [1]): 5.3 µM; IC50 (xanthine oxidase; [2]): 14.3 µM
